Key:
Experiment in all cases: relative viability (nuclei count vs DMSO), 5 days (fraction); higher = more cells survive
[1] = compound: C1COCCN1C2=NC(=NC3=C2OC4=C3C=CC=N4)C5=CC(=CC=C5)NC(=O)C6=CN=C(C=C6)N + CCNC(=O)c1noc(-c2cc(C(C)C)c(O)cc2O)c1-c1ccc(CN2CCOCC2)cc1 [Luminespib] (partner 0.01 µM)
Summary of the method: (§1)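 Relative viability is defined as nuclei in treated wells over nuclei in vehicle wells. Duplicate plates were run and medians reported. Lung cancer cell lines in 1536-well plates were dosed by pin tool one day after seeding, with one drug or with a fixed anchor-drug dose plus five library-drug doses (not always all listed) in √10 steps, and nuclei were counted after 5 days.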

[2] = compound: C1COCCN1C2=NC(=NC3=C2OC4=C3C=CC=N4)C5=CC(=CC=C5)NC(=O)C6=CN=C(C=C6)N + Nc1nc2[nH]cc(CCc3ccc(C(=O)N[C@@H](CCC(=O)O)C(=O)O)cc3)c2c(=O)[nH]1 [Pemetrexed] (partner 0.2 µM)
Summary of the method: as §1

[3] = compound: CN1CCC(CNc2ccc3ncc(-c4cccc(OC(F)(F)F)c4)n3n2)CC1 [SGI-1776] + COc1cc2c(Oc3ccc(NC(=O)C4(C(=O)Nc5ccc(F)cc5)CC4)cc3F)ccnc2cc1OCCCN1CCOCC1 [Foretinib] (partner 0.25 µM)
Summary of the method: as §1

[4] = compound: Nc1ccccc1NC(=O)c1ccc(CNC(=O)OCc2cccnc2)cc1 [Entinostat] + COc1cccc2cc(-c3nc([C@H]4CC[C@H](C(=O)O)CC4)n4ncnc(N)c34)[nH]c12 [OSI-027] (partner 0.5 µM)
Summary of the method: as §1

| Cell Line | relative viability ([1]; first compound 0.02 µM) | relative viability ([1]; first compound 0.06325 µM) | relative viability ([1]; first compound 0.2 µM) | relative viability ([1]; first compound 0.6325 µM) | relative viability ([1]; first compound 2 µM) | relative viability ([2]; first compound 0.02 µM) | relative viability ([2]; first compound 0.06325 µM) | relative viability ([2]; first compound 0.2 µM) | relative viability ([2]; first compound 0.6325 µM) | relative viability ([2]; first compound 2 µM) | relative viability ([3]; first compound 0.08 µM) | relative viability ([3]; first compound 0.8 µM) | relative viability ([3]; first compound 2.53 µM) | relative viability ([3]; first compound 8 µM) | relative viability ([4]; first compound 0.02 µM) | relative viability ([4]; first compound 0.06325 µM) | relative viability ([4]; first compound 0.2 µM) | relative viability ([4]; first compound 0.6325 µM) | relative viability ([4]; first compound 2 µM) |
| --- | --- | --- | --- | --- | --- | --- | --- | --- | --- | --- | --- | --- | --- | --- | --- | --- | --- | --- | --- |
| RERF-LC-KJ | 1.22 | 1.3 | 1.02 | 1.38 | 0.633 | 0.507 | 0.46 | 0.484 | 0.457 | 0.376 | 0.879 | 0.894 | 0.879 | 0.78 | 0.582 | 0.591 | 0.6 | 0.326 | 0.264 |
| LU99A | 0.265 | 0.221 | 0.235 | 0.207 | 0.266 | 0.204 | 0.183 | 0.223 | 0.184 | 0.178 | 0.868 | 0.8 | 0.784 | 0.41 | 0.308 | 0.314 | 0.353 | 0.27 | 0.296 |
| PC-3 [JPC-3] | 0.704 | 0.675 | 0.754 | 0.675 | 0.613 | 1.21 | 1.09 | – | 1.08 | 1.17 | 1.03 | 1.01 | 1.08 | 0.978 | 0.761 | 0.745 | 0.57 | 0.432 | 0.306 |
| NCI-H2126 | 0.892 | 0.894 | 0.871 | 0.845 | 0.566 | 0.706 | 0.784 | 0.674 | 0.629 | 0.559 | 1.29 | 1.27 | 1.44 | 1.06 | 0.725 | 0.699 | 0.712 | 0.402 | 0.308 |
| LXF-289 | 0.598 | 0.798 | 0.783 | 0.494 | 0.321 | 0.945 | 1 | 0.873 | 0.923 | 0.647 | 0.98 | 0.974 | 1.01 | 0.971 | 0.795 | 0.765 | 0.894 | 0.582 | 0.395 |
| BEN | 0.479 | 0.312 | 0.313 | 0.328 | 0.42 | 0.737 | 0.795 | 0.584 | 0.693 | 0.665 | 0.72 | 0.623 | 0.472 | 0.552 | 0.271 | 0.353 | 0.323 | 0.302 | 0.217 |
| SW 1573 | 0.152 | 0.232 | 0.118 | 0.176 | 0.3 | 0.925 | 0.731 | 0.794 | 0.812 | 0.322 | 0.949 | 0.846 | 0.846 | 0.791 | 0.639 | 0.832 | 0.617 | 0.598 | 0.54 |
| NCI-H1993 | 0.906 | 0.776 | 0.707 | 0.802 | 0.689 | 0.619 | 0.666 | 0.607 | 0.583 | 0.475 | 0.819 | 0.761 | 0.688 | 0.695 | 0.484 | 0.586 | 0.53 | 0.552 | 0.653 |
| SK-LU-1 | 0.202 | 0.206 | 0.218 | 0.214 | 0.181 | 1.07 | 0.953 | 1.06 | 0.917 | 0.465 | 0.843 | 0.773 | 0.765 | 0.426 | 0.357 | 0.448 | 0.35 | 0.261 | 0.231 |
| NCI-H460 | 0.0333 | 0.035 | 0.0284 | 0.0243 | 0.0278 | 0.0585 | 0.0645 | 0.0766 | 0.0835 | 0.0565 | 1.01 | 0.947 | 0.998 | 0.716 | 0.606 | 0.575 | 0.335 | 0.0521 | 0.0268 |
| LCLC-97TM1 | 0.787 | 0.908 | 0.739 | 0.826 | 0.566 | 0.199 | 0.195 | 0.181 | 0.203 | 0.2 | 0.932 | 0.952 | 0.945 | 0.829 | 0.583 | 0.462 | 0.51 | 0.408 | 0.43 |
| NCI-H1975 | 0.157 | 0.148 | 0.202 | 0.29 | 0.3 | 0.327 | 0.296 | 0.293 | 0.292 | 0.23 | 0.961 | 0.943 | 0.827 | 0.692 | 0.532 | 0.526 | 0.467 | 0.264 | 0.209 |

— the supplement of paper PMC10307832
